From patent US6346543B1, “Use of a taxoid to treat abnormal cell proliferation in the brain” (priority 1998, dated 2002)
“And” between values parts separate entries of the source, which are not always exact repeats. Equal values may be shown once.

How the values were obtained:
[1] = system: intracranially implanted human glioblastoma SF-295; assay: Antitumor activity against intracranially implanted SF-295 glioblastoma in NCr-nu mice (RP-38); format: in vivo; settings: for DAYS OF DEATH: individual animals
Description: Four studies were initiated to evaluate the response of U251 and SF-295 glioblastomas to treatment with product (Ia). In the two studies, U251 and SF-295 glioblastomas were initiated from intracranially implanted cells at a volume of 10^6 cells per mouse. The treatment schedule of the intracranially implanted U251 glioblastoma cells was iv, once daily, every sixth day for three treatments (q6d×3), beginning on day four post-implant. The treatment schedule of the intracranially implanted SF-295 glioblastoma cells was iv, once daily, every fourth day for three treatments (q4d×3), beginning on day two post-implant. For the intracranially implanted studies, the compounds were evaluated based on their ability to increase the life span of the animals. The positive control used for both of these tumor models was nitrosourea.
In these experiments, general DCTD, NCI techniques and procedures for in vivo efficacy studies were modified for special application (In Vivo Cancer Models, NIH Publication No. 84-2635, 1984). These studies were conducted in approved facilities (AAALAC Registration No. 000643, AALAS Membership No. 840723001, USDA Registration No. 64-R-001, OPPR, PHS, NIH, AWA, Assurance No. A3046-01). These facilities are ISO 9001 certified. The oversight committee was the Southern Research Institutional Animal Care and Use Committee; the protocol used was IACUC No. 96-8-50.
(§1) Product (Ia) was prepared in 5% ethanol, 5% tween 80, 90% D5W
Nitrosourea was prepared in 2% ethanol, 98% physiological saline.
(§2) Product (Ia) was administered in 0.4 ml/mouse based on a total body weight average.
(§3) Nitrosourea was administered 0.1 ml/10 g of body weight.
(§4) Any intracranially implanted animal that appeared to be moribund was euthanized for humane purposes. Since efficacy studies fall within this category of basic research, experiment termination was based on resultants that were determined to be optimal.
Six to eight week old athymic NCr-nu female mice were used for the intracranially implanted U251 trials. Six to eight week old athymic NCr-nu male mice were used for the intracranially implanted SF-295 trials.
As previously mentioned, this experiment was designed to evaluate the activity of product (Ia) against intracranially U251 and SF-295 glioblastomas in athymic MCr-nu mice. The dosages for product (Ia) were 30, 20 and 13.4 mg/kg/dose. For the two intracranially implanted experiments, cells were prepared at a concentration of 3.33×10^7 cells per ml of media and injected at a volume of 0.03 ml per mouse. The cells were injected into the cerebrum to the right of the midline with a 25 gauge, ⅜ inch, stainless steel needle. Cultured cells were used for the U251 experiment (RP-36). The treatment schedule was q6d×3, iv, beginning on day four, post-implant. A tumor brei, made from solid tumor, was used for the SF-295 experiment (RP-38). The treatment schedule was q4d×3, iv, beginning on day two, post-implant. Nitrosourea was given in each experiment for comparative purposes because of its known activity against CNS tumors. The dosages were 27, 18 and 12 mg/kg/dose and the treatment schedule was the same as the treatment schedule for product (Ia) in each experiment.

[2] = system: intracranially implanted human glioblastoma U251; assay: Antitumor activity against intracranially implanted U251 glioblastoma in NCr-nu mice (RP-36); format: in vivo; settings: for DAYS OF DEATH: individual animals
Protocol: The treatment schedule of the intracranially implanted U251 glioblastoma cells was iv, once daily, every sixth day for three treatments (q6d×3), beginning on day four post-implant. […] For the intracranially implanted studies, the compounds were evaluated based on their ability to increase the life span of the animals. The positive control used for both of these tumor models was nitrosourea.
The oversight committee was the Southern Research Institutional Animal Care and Use Committee; the protocol used was IACUC No. 96-8-50.
as §1, §2, §3, §4
Six to eight week old athymic NCr-nu female mice were used for the intracranially implanted U251 trials.
The cells were injected into the cerebrum to the right of the midline with a 25 gauge, ⅜ inch, stainless steel needle. Cultured cells were used for the U251 experiment (RP-36). The treatment schedule was q6d×3, iv, beginning on day four, post-implant. […] The treatment schedule was q4d×3, iv, beginning on day two, post-implant. Nitrosourea was given in each experiment for comparative purposes because of its known activity against CNS tumors.

[3] = 13.4 mg/kg/dose IV Q4D×3(2), listed as product (Ia)
[4] = 13.4 mg/kg/dose IV Q6D×3(4), listed as Product I(a)
[5] = 13.4 mg/kg/dose IV Q6D×3(4), listed as product (Ia)
[6] = 20.0 mg/kg/dose IV Q6D×3(4), listed as Product I(a)
[7] = 20.0 mg/kg/dose IV Q6D×3(4), listed as product (Ia)
[8] = 30.0 mg/kg/dose IV Q6D×3(4), listed as Product I(a)
[9] = 30.0 mg/kg/dose IV Q6D×3(4), listed as product (Ia)

CO[C@H]1C(=O)[C@]2(C)[C@@H](OC)C[C@H]3OC[C@@]3(OC(C)=O)[C@H]2[C@H](OC(=O)c2ccccc2)[C@]2(O)C[C@H](OC(=O)[C@H](O)[C@@H](NC(=O)OC(C)(C)C)c3ccccc3)C(C)=C1C2(C)C [Product (Ia), 4α-acetoxy-2α-benzoyloxy-5β, 20-epoxy-1β-hydroxy-7β, 10β-dimethoxy-9-oxo-11-taxen-13α-yl (2R,3S)-3 tert-butoxycarbonylamino-2-hydroxy-3-phenylpropionate]
68 DAY SURV./TOTAL ([1]; 13.4 mg/kg/dose IV Q4D×3(2)): 1/10
% ILS ([1]; 13.4 mg/kg/dose IV Q4D×3(2)): +81%
MEDIAN DAY OF DEATH ([1]; 13.4 mg/kg/dose IV Q4D×3(2)): 29.0 days
MEAN ANIMAL WEIGHT ([1]; 13.4 mg/kg/dose IV Q4D×3(2), day 2): 25 GRAMS
MEAN ANIMAL WEIGHT ([1]; 13.4 mg/kg/dose IV Q4D×3(2), day 5): 24 GRAMS
MEAN ANIMAL WEIGHT ([1]; 13.4 mg/kg/dose IV Q4D×3(2), day 8): 23 GRAMS
MEAN ANIMAL WEIGHT ([1]; 13.4 mg/kg/dose IV Q4D×3(2), day 13): 22 GRAMS
MEAN ANIMAL WEIGHT ([1]; 13.4 mg/kg/dose IV Q4D×3(2), day 15): 20 GRAMS
MEAN ANIMAL WEIGHT ([1]; 13.4 mg/kg/dose IV Q4D×3(2), day 19): 21 GRAMS
MEAN ANIMAL WEIGHT ([1]; 13.4 mg/kg/dose IV Q4D×3(2), day 22): 22 GRAMS
MEAN ANIMAL WEIGHT ([1]; 13.4 mg/kg/dose IV Q4D×3(2), day 26): 21 GRAMS
MEAN ANIMAL WEIGHT ([1]; 13.4 mg/kg/dose IV Q4D×3(2), day 29): 22 GRAMS
MEAN ANIMAL WEIGHT ([1]; 13.4 mg/kg/dose IV Q4D×3(2), day 33): 22 GRAMS
MEAN ANIMAL WEIGHT ([1]; 13.4 mg/kg/dose IV Q4D×3(2), day 37): 26 GRAMS
MEAN ANIMAL WEIGHT ([1]; 13.4 mg/kg/dose IV Q4D×3(2), day 40): 22 GRAMS
MEAN ANIMAL WEIGHT ([1]; 13.4 mg/kg/dose IV Q4D×3(2), day 43): 27 GRAMS
DAYS OF DEATH ([1]; 13.4 mg/kg/dose IV Q4D×3(2)): 34 day and 41 day and 25 day (2×) and 29 day (3×) and 30 day and 32 day
68 DAY SURV./TOTAL [1, 3]: one 68-day survivor out of ten animals
% ILS [1, 3]: 81%
mean weight loss through the treatment period ([1]; 20 mg/kg dose iv q4d×3): 6 g
68 DAY SURV./TOTAL ([1]; 20.0 mg/kg/dose IV Q4D×3(2)): 0/10
% ILS ([1]; 20.0 mg/kg/dose IV Q4D×3(2)): +94%
MEDIAN DAY OF DEATH ([1]; 20.0 mg/kg/dose IV Q4D×3(2)): 31.0 days
MEAN ANIMAL WEIGHT ([1]; 20.0 mg/kg/dose IV Q4D×3(2), day 2): 25 GRAMS
MEAN ANIMAL WEIGHT ([1]; 20.0 mg/kg/dose IV Q4D×3(2), day 5): 24 GRAMS
MEAN ANIMAL WEIGHT ([1]; 20.0 mg/kg/dose IV Q4D×3(2), day 8): 21 GRAMS
MEAN ANIMAL WEIGHT ([1]; 20.0 mg/kg/dose IV Q4D×3(2), day 13): 19 GRAMS
MEAN ANIMAL WEIGHT ([1]; 20.0 mg/kg/dose IV Q4D×3(2), day 15): 18 GRAMS
MEAN ANIMAL WEIGHT ([1]; 20.0 mg/kg/dose IV Q4D×3(2), day 19): 19 GRAMS
MEAN ANIMAL WEIGHT ([1]; 20.0 mg/kg/dose IV Q4D×3(2), day 22): 21 GRAMS
MEAN ANIMAL WEIGHT ([1]; 20.0 mg/kg/dose IV Q4D×3(2), day 26): 22 GRAMS
MEAN ANIMAL WEIGHT ([1]; 20.0 mg/kg/dose IV Q4D×3(2), day 29): 19 GRAMS
MEAN ANIMAL WEIGHT ([1]; 20.0 mg/kg/dose IV Q4D×3(2), day 33): 23 GRAMS
MEAN ANIMAL WEIGHT ([1]; 20.0 mg/kg/dose IV Q4D×3(2), day 37): 29 GRAMS
MEAN ANIMAL WEIGHT ([1]; 20.0 mg/kg/dose IV Q4D×3(2), day 40): 29 GRAMS
MEAN ANIMAL WEIGHT ([1]; 20.0 mg/kg/dose IV Q4D×3(2), day 43): 29 GRAMS
DAYS OF DEATH ([1]; 20.0 mg/kg/dose IV Q4D×3(2)): 33 day (2×) and 37 day and 54 day and 13 day (2×) and 16 day and 31 day (3×)
% ILS ([1]; 20.0 mg/kg/dose IV Q4D×3(2), listed as product (Ia)): 94%
mean weight loss through the treatment period ([1]; 30 mg/kg dose iv q4d×3): 7 g
68 DAY SURV./TOTAL ([1]; 30.0 mg/kg/dose IV Q4D×3(2)): 0/10
% ILS ([1]; 30.0 mg/kg/dose IV Q4D×3(2)): −9%
MEDIAN DAY OF DEATH ([1]; 30.0 mg/kg/dose IV Q4D×3(2)): 14.5 days
MEAN ANIMAL WEIGHT ([1]; 30.0 mg/kg/dose IV Q4D×3(2), day 2): 25 GRAMS
MEAN ANIMAL WEIGHT ([1]; 30.0 mg/kg/dose IV Q4D×3(2), day 5): 23 GRAMS
MEAN ANIMAL WEIGHT ([1]; 30.0 mg/kg/dose IV Q4D×3(2), day 8): 18 GRAMS
MEAN ANIMAL WEIGHT ([1]; 30.0 mg/kg/dose IV Q4D×3(2), day 13): 18 GRAMS
MEAN ANIMAL WEIGHT ([1]; 30.0 mg/kg/dose IV Q4D×3(2), day 15): 19 GRAMS
MEAN ANIMAL WEIGHT ([1]; 30.0 mg/kg/dose IV Q4D×3(2), day 19): 19 GRAMS
MEAN ANIMAL WEIGHT ([1]; 30.0 mg/kg/dose IV Q4D×3(2), day 22): 21 GRAMS
MEAN ANIMAL WEIGHT ([1]; 30.0 mg/kg/dose IV Q4D×3(2), day 26): 21 GRAMS
MEAN ANIMAL WEIGHT ([1]; 30.0 mg/kg/dose IV Q4D×3(2), day 29): 19 GRAMS
MEAN ANIMAL WEIGHT ([1]; 30.0 mg/kg/dose IV Q4D×3(2), day 33): 20 GRAMS
MEAN ANIMAL WEIGHT ([1]; 30.0 mg/kg/dose IV Q4D×3(2), day 37): 18 GRAMS
MEAN ANIMAL WEIGHT ([1]; 30.0 mg/kg/dose IV Q4D×3(2), day 40): 21 GRAMS
MEAN ANIMAL WEIGHT ([1]; 30.0 mg/kg/dose IV Q4D×3(2), day 43): 17 GRAMS
DAYS OF DEATH ([1]; 30.0 mg/kg/dose IV Q4D×3(2)): 40 day and 41 day and 47 day and 11 day and 13 day (2×) and 14 day (2×) and 15 day and 30 day
activity against intracranially implanted SF-295 glioblastoma ([1]; iv q4d×3): quite active
MTD ([1]; iv q4d×3, SF-295 experiment RP-38): 13.4 mg/kg/dose
MEDIAN DAY OF DEATH ([2]; 13.4 mg/kg/dose IV Q6D×3(4)): 83.0 days
DAYS OF DEATH ([2]; 13.4 mg/kg/dose IV Q6D×3(4)): 69 day (2×) and 83 day (4×) and 122 day
122-DAY SURV./TOTAL [2, 4]: 3/10
% ILS [2, 4]: +144%
122-DAY SURV./TOTAL [2, 5]: three of ten
% ILS [2, 5]: 144%
MEDIAN DAY OF DEATH ([2]; 20.0 mg/kg/dose IV Q6D×3(4)): 103.0 days
DAYS OF DEATH ([2]; 20.0 mg/kg/dose IV Q6D×3(4)): 58 day and 98 day and 100 day and 106 day (2×) and 122 day
122-DAY SURV./TOTAL [2, 6]: 4/10
% ILS [2, 6]: +202%
122-DAY SURV./TOTAL [2, 7]: four of ten
% ILS [2, 7]: 202%
MEDIAN DAY OF DEATH ([2]; 30.0 mg/kg/dose IV Q6D×3(4)): 94.0 days
DAYS OF DEATH ([2]; 30.0 mg/kg/dose IV Q6D×3(4)): 21 days and 34 days and 94 days and 98 days and 103 days
122-DAY SURV./TOTAL [2, 8]: 5/10
% ILS [2, 8]: +176%
122-DAY SURV./TOTAL [2, 9]: five of ten
% ILS [2, 9]: 176%
activity against intracranially implanted U251 glioblastoma ([2]; iv q6d×3): quite active
MTD ([2]; iv q6d×3, U251 experiment RP-36): 20 mg/kg/dose
